Counter-ions that a name gives are not always drawn.
Columns and labels:
HCT116 [1] = experiment: efficacy (fitted maximal change in viability relative to DMSO control); higher = less cytotoxic (negative = loss of viability); settings: 48 h
HCT116 [2] = experiment: AC50 cell viability (CellTiter-Glo); higher = less potent; settings: 48 h
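For AC50 cell viability (CellTiter-Glo) in this document: HCT116 colorectal carcinoma cells screened at five concentrations per compound, luminescent viability scaled between DMSO wells and empty wells on each plate, curves fitted per compound.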
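For efficacy (fitted maximal change in viability relative to DMSO control) in this document: Luminescence-based viability readout, five doses per compound, normalized against on-plate DMSO and empty-well controls, followed by dose-response curve fitting for every drug.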

With `N[S+](=O)([O-])c1ccc([S+](=O)([O-])Nc2cccc3c(Cl)c[nH]c23)cc1` [Indisulam (E7070)] the efficacy (HCT116 [1]) was -57.8% and the AC50 cell viability (HCT116 [2]) was 1.86 µM.

`COc1cc(/C=C/C(=O)CC(=O)/C=C/c2ccc(O)c(OC)c2)ccc1O` [Curcumin] was tested, and the efficacy (HCT116 [1]) was -68% and the AC50 cell viability (HCT116 [2]) was 4.17 µM.

`NC(=O)c1ccccc1Nc1ccnc(Nc2cccc(O)c2)n1` showed an efficacy (HCT116 [1]) of -95.9% and an AC50 cell viability (HCT116 [2]) of 5.9 µM.

`C[C@@H]1CCNC(=O)c2cc3ccc(C(=O)Nc4nc5ccccc5n4CCCN(C)C)cc3n21` gave an efficacy (HCT116 [1]) of -92.3% and an AC50 cell viability (HCT116 [2]) of 11.8 µM.

With `CCOC(=O)N1c2ccc(C(F)(F)F)cc2[C@@H](N(Cc2cc(C(F)(F)F)cc(C(F)(F)F)c2)C(=O)OC)C[C@H]1CC` [Torcetrapib] the efficacy (HCT116 [1]) was -45.4% and the AC50 cell viability (HCT116 [2]) was 8.33 µM.

`Cc1ccc(NC(=O)c2ccc3c(c2)OCCO3)cc1NC(=O)c1ccc2nc(OCCN3CCCC3)ccc2c1` was tested, and the efficacy (HCT116 [1]) was -69.9% and the AC50 cell viability (HCT116 [2]) was 0.0407 µM.

`CC1(C)OC/2=C(\[C@H](NCC3=CC=CC=C3)[C@@H]1O)C(=O)C4=CC=CC=C4C2=O` was tested, and the efficacy (HCT116 [1]) was -96.8% and the AC50 cell viability (HCT116 [2]) was 2.95 µM.

`C[C@@H]1C[C@H]2[C@@H]3CC\C4=C\C(=O)\C=C/[C@]4(C)[C@@]3(Cl)[C@@H](O)C[C@]2(C)[C@@]1(OC(=O)C5=CC=CO5)C(=O)CCl` [Mometasone furoate] gave an efficacy (HCT116 [1]) of -78.7% and an AC50 cell viability (HCT116 [2]) of 20.9 µM.

`c1nc2c(NC3CCCCC3)nc(Nc3ccc(N4CCOCC4)cc3)nc2[nH]1` [Reversine] was tested, and the efficacy (HCT116 [1]) was -114% and the AC50 cell viability (HCT116 [2]) was 6.61 µM.

For `CCCCCCCCCCCCCC(=O)N[C@H](CO)[C@H](O)c1ccc([N+](=O)[O-])cc1` [D-NMAPPD], the efficacy (HCT116 [1]) was -101% and the AC50 cell viability (HCT116 [2]) was 26.3 µM.

Compound `C[C@H](NC1=C2N=C[NH]C2=NC=N1)C/3=C/C4=C(C(=CC=C4)Cl)C(=O)N3C5=CC=CC=C5` [Duvelisib] has an efficacy (HCT116 [1]) of -72% and an AC50 cell viability (HCT116 [2]) of 18.6 µM.

In the case of `NC(=O)C/1=C(O)/[C@]2(O)[C@@H](C[C@@H]\3CC4=C(C(=CC=C4)O)\C(=C3C2=O)O)CC1=O` [Incyclinide], the efficacy (HCT116 [1]) is reported as -69.4% and the AC50 cell viability (HCT116 [2]) is reported as 16.6 µM.

Work on `C[C@H]1CN(C[C@@H](C)O1)CC(=O)NC2=CC=C3SC4=C(CC3=C2)C=CC=C4\C5=C\C(=O)\C=C(/O5)N6CCOCC6` yielded an efficacy (HCT116 [1]) of -51.9% and an AC50 cell viability (HCT116 [2]) of 5.9 µM.

`CN[C@H]1CCC2=CC(=C(OC)C(=C2C/3=C/C=C(OC)\C(=O)/C=C13)OC)OC` [Demecolcine] showed an efficacy (HCT116 [1]) of -62.6% and an AC50 cell viability (HCT116 [2]) of 0.059 µM.

`C=CC(=O)Nc1cccc(Oc2nc(Nc3ccc(N4CCN(C)CC4)cc3)nc3ccsc23)c1` [Olmutinib] showed an efficacy (HCT116 [1]) of -98.2% and an AC50 cell viability (HCT116 [2]) of 8.33 µM.

`C[C@@H]1COCCN1c1cc(-c2ccnn2C)c2ccnc(-c3ccn[nH]3)c2n1` was tested, and the efficacy (HCT116 [1]) was -70.3% and the AC50 cell viability (HCT116 [2]) was 0.525 µM.

With `CC1=C(C)C2=C(S1)[N]3C(=NN=C3[C@H](CC(=O)OC(C)(C)C)/N=C2/C4=CC=C(Cl)C=C4)C` [JQ1] the efficacy (HCT116 [1]) was -81.9% and the AC50 cell viability (HCT116 [2]) was 0.525 µM.

With `COc1ccc(CNC(=O)Nc2ncc([N+](=O)[O-])s2)cc1` the efficacy (HCT116 [1]) was -96.6% and the AC50 cell viability (HCT116 [2]) was 20.9 µM.

`FC(F)(F)C1=CC=C2C(SCCCCCO\C3=C\O\C(CN4CCOCC4)=C/C3=O)=CC=NC2=C1` showed an efficacy (HCT116 [1]) of -67.7% and an AC50 cell viability (HCT116 [2]) of 18.6 µM.

Compound `Cc1cnc(Nc2ccc(N3CCN(C)CC3)cc2)nc1Nc1cccc([S+](=O)([O-])NC(C)(C)C)c1` has an efficacy (HCT116 [1]) of -89.5% and an AC50 cell viability (HCT116 [2]) of 1.86 µM.

`C[C@]\12CC[C@H](O)CC1=C/CC3C2CC[C@@]\4(C)C3C\C=C4[N]5C=NC6=C5C=CC=C6` (some centres undefined) [Galeterone] showed an efficacy (HCT116 [1]) of -43.8% and an AC50 cell viability (HCT116 [2]) of 5.9 µM.

`COc1ccc(Oc2cc(NCCC(F)(F)F)c3ncc(-c4ccc(C(=O)NC5CC5)c(C)c4)n3n2)c(F)c1F` was tested, and the efficacy (HCT116 [1]) was -56.8% and the AC50 cell viability (HCT116 [2]) was 0.372 µM.

`CNC(=O)c1cc(Oc2ccc(NC(=O)Nc3ccc(Cl)c(C(F)(F)F)c3)c(F)c2)ccn1` [Regorafenib] was tested, and the efficacy (HCT116 [1]) was -85.3% and the AC50 cell viability (HCT116 [2]) was 5.25 µM.

`C[C@@H]1CC(=O)Nc2cccc(-c3cnn(C(C)(C)C)c3)c2N1` [CPI-703] was tested, and the efficacy (HCT116 [1]) was -37.4% and the AC50 cell viability (HCT116 [2]) was 16.6 µM.

Work on `Nc1ncnc2nc(-c3ccc(N4CCOCC4)nc3)cc(-c3cccc(Br)c3)c12` [ABT-702] yielded an efficacy (HCT116 [1]) of -53% and an AC50 cell viability (HCT116 [2]) of 20.9 µM.

With `CC1=C(C)C\2=C(S1)[N]3C(=NN=C3[C@H](CC(=O)NC4=CC=C(OCCOCCOCCOCCNC5=CC=CC6=C5C(=O)N(C7CCC(=O)NC7=O)C6=O)C=C4)\N=C2C8=CC=C(Cl)C=C8)C` (some centres undefined) [ARV-825] the efficacy (HCT116 [1]) was -73.3% and the AC50 cell viability (HCT116 [2]) was 0.263 µM.

`OCCNC1CCCc2c1[nH]c1ccc(-c3ccccc3)cc21` (centres undefined) [CASIN] showed an efficacy (HCT116 [1]) of -95.3% and an AC50 cell viability (HCT116 [2]) of 8.33 µM.

`COC(=O)N[C@@H](C)CNc1nccc(-c2cn(C(C)C)nc2-c2cc(Cl)cc(N[S+](C)(=O)[O-])c2F)n1` [Encorafenib] was tested, and the efficacy (HCT116 [1]) was -52.7% and the AC50 cell viability (HCT116 [2]) was 4.17 µM.

`CCN(CC)CCNC(=O)c1c(C)[nH]c(/C=C2\C(=O)Nc3ccc(F)cc32)c1C` [Sunitinib malate] was tested, and the efficacy (HCT116 [1]) was -98.2% and the AC50 cell viability (HCT116 [2]) was 3.32 µM.

`O=[S+]([O-])(Nc1ccc(-c2cccnc2)c2cccnc12)c1cccc(C(F)(F)F)c1` [Compound 22d] showed an efficacy (HCT116 [1]) of -73.3% and an AC50 cell viability (HCT116 [2]) of 4.17 µM.

`Cc1ccc(NC(=O)c2ccc(CN3CCN(C)CC3)cc2)cc1Nc1nc(-c2cccnc2)cs1` [Masitinib] showed an efficacy (HCT116 [1]) of -99.1% and an AC50 cell viability (HCT116 [2]) of 18.6 µM.

In the case of `COc1cc(F)ccc1-c1ncnc(Nc2cccc(C[S+](C)(=N)[O-])c2)n1` (centres undefined) [Atuveciclib], the efficacy (HCT116 [1]) is reported as -68% and the AC50 cell viability (HCT116 [2]) is reported as 0.468 µM.

`COc1ccc2nc3[nH]nc(C)c3c(NCCOCCO)c2c1` was tested, and the efficacy (HCT116 [1]) was -82.9% and the AC50 cell viability (HCT116 [2]) was 18.6 µM.

With `C/C(=C\c1csc(C)n1)[C@@H]1C[C@@H]2O[C@]2(C)CCC[C@H](C)[C@H](O)[C@@H](C)C(=O)C(C)(C)[C@@H](O)CC(=O)O1` [Epothilone B] the efficacy (HCT116 [1]) was -49.2% and the AC50 cell viability (HCT116 [2]) was 0.00662 µM.

`COC1=C(OC)C=C2C(=C1)C(=O)N(CCC[N]3C=CN=C3)\C4=C2\C(=O)C5=CC6=C(OCO6)C=C45` [Indimitecan hydrochloride (LMP-776)] gave an efficacy (HCT116 [1]) of -63.4% and an AC50 cell viability (HCT116 [2]) of 5.9 µM.

In the case of `O=C(NCCCNc1nc(Nc2cccc(CN3CCOCC3)c2)ncc1C1CC1)C1CCC1`, the efficacy (HCT116 [1]) is reported as -96.5% and the AC50 cell viability (HCT116 [2]) is reported as 16.6 µM.

Work on `O=C/1NC(=O)C(=C1C2=CN=C3C=CC=C[N]23)/C4=C[N]5CCN(CC6=C5C4=CC=C6)C(=O)N7CCOCC7` [GSK3 Inhibitor] yielded an efficacy (HCT116 [1]) of -85.7% and an AC50 cell viability (HCT116 [2]) of 9.34 µM.

In the case of `CC(C)(C)OC(=O)CN(Cc1ccc(Cl)cc1)Cc1ccc([N+](=O)[O-])s1` [GSK-4112], the efficacy (HCT116 [1]) is reported as -40.6% and the AC50 cell viability (HCT116 [2]) is reported as 20.9 µM.

Compound `COC1=CC=C2Nc3cc(Cl)ccc3C(N=C3C=C(CN4CCCC4)C(=O)C(CN4CCCC4)=C3)=C2N1` [PYRONARIDINE TETRAPHOSPHATE] has an efficacy (HCT116 [1]) of -76.4% and an AC50 cell viability (HCT116 [2]) of 9.34 µM.

Compound `COc1ccc(OC)c(-c2nnc3ccc(-c4ccc(OC)c(O[C@@H]5CCOC5)c4)nn23)c1` has an efficacy (HCT116 [1]) of -66.5% and an AC50 cell viability (HCT116 [2]) of 2.95 µM.

For `Cc1cccc(-c2[nH]c(C(C)(C)C)nc2-c2ccc3nccnc3c2)n1`, the efficacy (HCT116 [1]) was -85.8% and the AC50 cell viability (HCT116 [2]) was 20.9 µM.

`C[N+](C)(C)CC(=O)O` [Betaine] gave an efficacy (HCT116 [1]) of -51.8% and an AC50 cell viability (HCT116 [2]) of 20.9 µM.
